Results on 32 compounds are retold here after patent publication US6228877A, “Substituted pyrroles” (Hoffmann-La Roche Inc., priority 1998, dated 2001).

The test has as its system epithelial breast carcinoma cell line (MDAMB-435). Briefly: effect of compounds on growth of epithelial breast carcinoma cell line MDAMB-435 (MTT, 5 days). To be noted: Homo sapiens, MDA-MB-435, 120 h, MDAMB-435 cells, 5 days post drug addition, 0.1% DMSO. It counts as cell-based. The method, then:
The epithelial breast carcinoma cell line (MDAMB-435) was purchased from ATCC (American Type Cell Culture Collection) and was grown in culture in medium as recommended by ATCC. For analysis of the effect of various compounds on growth of these cells, the cells were plated at a concentration of 1500 cells/well in a 96 well tissue culture plate ("test plate). The day after the cells were plated, the compounds to be analyzed were dissolved in 100% DMSO (dimethyl sulfoxide) to yield at 10 mM stock solution. Each compound was diluted in H2 O to 1 mM and was added to triplicate wells in the first row of a 96 well master plate which contains medium to yield a final concentration of 40 μM. The compounds were then serially diluted in medium in the "master plate". The diluted compound(s) were then transferred to test plates containing cells. A row of vehicle "control cells" received DMSO. The final concentration of DMSO in each well was 0.1%. 5 days post drug addition, the plate was analyzed as follows:
MTT (3-(4-5 methyl thiazole-2-yl)-2,5-diphenyl tetrazolium bromide; thiazolyl blue) was added to each well to yield a final concentration of 1 mg/ml. The plate was then incubated at 37° C. for 21/2-3 hours. The MTT containing medium was then removed and 50 μl of 100% ethanol was added to each well to dissolve the formazan. The absorbences were then read using an automated plate reader (Bio-tek microplate reader).
IC50 's were calculated using the Reed and Munsch equation, see Am. J. Hygiene Vol. 27 pgs. 493-497, 1938.
A word on the IC50: it is the concentration needed to halve the response being measured. Read a high IC50 as weaker potency in that assay. `CCOc1ccc2c(C3=C(c4cn(C)c5cccc(Br)c45)C(=O)NC3=O)cn(C)c2c1` [Br H H EtO, 3-(4-Bromo-1-methyl-1H-indol-3-yl)-4-(6-ethoxy-1-methyl-1H-indol-3-yl)-pyrrole-2,5-dione]: the IC50 stood at 0.2 µM.
Then `COc1ccc2c(C3=C(c4cn(C)c5cccc(OC)c45)C(=O)NC3=O)cn(C)c2c1` [CH3 O H H CH3 O, 3-(6-Methoxy-1-methyl-1H-indol-3-yl)-4-(4-methoxy-1-methyl-1H-indol-3-yl)-pyrrole-2,5-dione], with 0.07 µM.
Then `COc1cccc2c1c(C1=C(c3cn(C)c4cc([N+](=O)[O-])ccc34)C(=O)NC1=O)cn2C` [CH3 O H H NO2, 3-(4-Methoxy-1-methyl-1H-indol-3-yl)-4-(1-methyl-6-nitro-1H-indol-3-yl)-pyrrole-2,5-dione], with 0.4 µM.
Then `COc1ccc2c(C3=C(c4cn(C)c5cccc(F)c45)C(=O)NC3=O)cn(C)c2c1` [F H H CH3 O, 3-(4-Fluoro-1-methyl-1H-indol-3-yl)-4-(6-methoxy-1-methyl-1H-indol-3-yl)-pyrrole-2,5-dione], with 0.2 µM.
Take `CCOc1ccc2c(C3=C(c4cn(C)c5cccc(F)c45)C(=O)NC3=O)cn(C)c2c1` [F H H EtO, 3-(4-Fluoro-1-methyl-1H-indol-3-yl)-4-(6-ethoxy-1-methyl-1H-indol-3-yl)-pyrrole-2,5-dione]: the IC50 stood at 0.032 µM.
Then `Cn1cc(C2=C(c3cn(C)c4cccc(F)c34)C(=O)NC2=O)c2ccc([N+](=O)[O-])cc21` [F H H NO2, 3-(4-Fluoro-1-methyl-1H-indol-3-yl)-4-(1-methyl-6-nitro-1H-indol-3-yl)-pyrrole-2,5-dione], with 0.05 µM.
Then `Cc1ccc2c(c1)c(C1=C(c3cn(C)c4cc(C)ccc34)C(=O)NC1=O)cn2C` [H CH3 H CH3, 3-(1,6-Dimethyl-1H-indol-3-yl)-4-(1,5-dimethyl-1H-indol-3-yl)-pyrrole-2,5-dione], with 0.4 µM; and `Cc1ccc2c(c1)c(C1=C(c3cn(C)c4cc([N+](=O)[O-])ccc34)C(=O)NC1=O)cn2C` [H CH3 H NO2, 3-(1,5-Dimethyl-1H-indol-3-yl)-4-(1-methyl-6-nitro-1H-indol-3-yl)-pyrrole-2,5-dione], with 0.13 µM.
Then `COc1ccc2c(c1)c(C1=C(c3cn(C)c4cc(OC)ccc34)C(=O)NC1=O)cn2C` [H CH3 O H CH3 O], with 0.07 µM; and `COc1ccc2c(c1)c(C1=C(c3cn(C)c4cc(SC)ccc34)C(=O)NC1=O)cn2C` [H CH3 O H CH3 S, 3-(5-Methoxy-1-methyl-11H-indol-3-yl)-4-(1-methyl-6-methylsulfanyl-1H-indol-3-yl)-pyrrole-2,5-dione], with 0.2 µM.
Regarding `COc1ccc2c(c1)c(C1=C(c3cn(C)c4cc(C#N)ccc34)C(=O)NC1=O)cn2C` [H CH3 O H CN, 3-[4-(5-methoxy-1-methyl-1H-indol-3-yl)-2,5-dioxo-2,5-dihydro-1H-pyrrol-3-yl]-1-methyl-1H-indole-6-carbonitrile], the IC50 amounted to 0.07 µM.
Then `COc1ccc2c(c1)c(C1=C(c3cn(C)c4cc(Cl)ccc34)C(=O)NC1=O)cn2C` [H CH3 O H Cl, 3-(6-Chloro-1-methyl-1H-indol-3-yl)-4-(5-methoxy-1-methyl-1H-indol-3-yl)-pyrrole-2,5-dione], with 0.2 µM; and `CCOc1ccc2c(C3=C(c4cn(C)c5ccc(OC)cc45)C(=O)NC3=O)cn(C)c2c1` [H CH3 O H EtO, 3-(6-Ethoxy-1-methyl-1H-indol-3-yl)-4-(5-methoxy-1-methyl-1H-indol-3-yl)-pyrrole-2,5-dione], with 0.07 µM; and `Cc1ccc2c(C3=C(c4cn(C)c5ccc(C#N)cc45)C(=O)NC3=O)cn(C)c2c1` [H CN H CH3, 3-[4-(1,6-Dimethyl-1H-indol-3-yl]-2,5-dioxo-2,5-dihydro-1H-pyrrol-3-yl]1-methyl-1H-indole-5-carbonitrile], with 0.4 µM.
For `Cn1cc(C2=C(c3cn(C)c4cc([N+](=O)[O-])ccc34)C(=O)NC2=O)c2cc(C#N)ccc21` [H CN H NO2, 1-Methyl-3-[4-(1-methyl-6-nitro-1H-indol-3-yl)-2,5-dioxo-2,5-dihydro-1H-pyrrol-3-yl]-1H-indole-5-carbonitrile], the IC50 came out at 1 µM.
Then `Cc1ccc2c(C3=C(c4cn(C)c5ccc(Cl)cc45)C(=O)NC3=O)cn(C)c2c1` [H Cl H CH3, 3-(5-Chloro-1-methyl-1H-indol-3-yl)-4-(1,6-dimethyl-1H-indol-3-yl)-pyrrole-2,5-dione], with 0.4 µM.
Then `Cn1cc(C2=C(c3cn(C)c4cc([N+](=O)[O-])ccc34)C(=O)NC2=O)c2cc(Cl)ccc21` [H Cl H NO2, 3-(5-Chloro-1-methyl-1H-indol-3-yl)-4-(l-methyl-6-nitro-1H-indol-3-yl)-pyrrole-2,5-dione], with 0.17 µM; and `Cn1cc(C2=C(c3cn(C)c4cc([N+](=O)[O-])ccc34)C(=O)NC2=O)c2ccc(Br)cc21` [H H Br NO2, 3-(6-Bromo-1-methyl-1H-indol-3-yl)-4-(1-methyl-6-nitro-1H-indol-3-yl)-pyrrole-2,5-dione], with 0.07 µM.
Then `Cn1cc(C2=C(c3cn(C)c4cc([N+](=O)[O-])ccc34)C(=O)NC2=O)c2ccc(NC(=O)C(F)(F)F)cc21` [H H CF3 CONH NO2, N-{1-methyl-3-[4-(1-methyl-6-nitro-1H-indol-3-yl)-2,5-dioxo-2,5-dihydro-1H-pyrrol-3-yl]-1H-indol-3-yl}-trifluoroacetamide], with 0.012 µM; and `Cc1ccc2c(C3=C(c4cn(C)c5cc(C#N)ccc45)C(=O)NC3=O)cn(C)c2c1` [H H CH3 CN, 3-[4-(1,6-dimethyl-1H-indol-3-yl)-2,5-dioxo-2,5-dihydro-1H-pyrrole-3-yl]-1-methyl-1H-indole-6-carbonitrile], with 0.01 µM.
For `COc1ccc2c(C3=C(c4cn(C)c5cc(NC(C)=O)ccc45)C(=O)NC3=O)cn(C)c2c1` [H H CH3 CONH CH3 O, N-{3-[4-(6-Methoxy-1-methyl-1H-indol-3-yl)-2,5-dioxo-2,5-dihydro-1H-pyrrol-3-yl]-1-methyl-1H-indol-6-yl}-acetamide], the IC50 worked out at 0.07 µM.
Then `CC(=O)Nc1ccc2c(C3=C(c4cn(C)c5cc([N+](=O)[O-])ccc45)C(=O)NC3=O)cn(C)c2c1` [H H CH3 CONH NO2], with 0.02 µM.
Then `CNc1ccc2c(C3=C(c4cn(C)c5cc(OC)ccc45)C(=O)NC3=O)cn(C)c2c1` [H H CH3 NH CH3 O, 3-(6-Methoxy-1-methyl-1H-indol-3-yl)-4-(1-methyl-6-methyl-amino-1H-indol-3-yl)-pyrrole-2,5-dione], with less than 0.01 µM; and `Cc1ccc2c(C3=C(c4cn(C)c5cc([N+](=O)[O-])ccc45)C(=O)NC3=O)cn(C)c2c1` [H H CH3 NO2, 3-(1,6-dimethyl-1H-indol-3-yl)-4-(1-methyl-6-nitro-1H-indol-3-yl)-pyrrole-2,5-dione], with 0.07 µM; and `COc1ccc2c(C3=C(c4cn(C)c5cc(C)ccc45)C(=O)NC3=O)cn(C)c2c1` [H H CH3 OCH3, 3-(1,6-dimethyl-1H-indol-3-yl)-4-(6-methoxy-1-methyl-1H-indol-3-yl)-pyrrole-2,5-dione], with 0.02 µM.
Then `COc1ccc2c(C3=C(c4cn(C)c5cc(NC=O)ccc45)C(=O)NC3=O)cn(C)c2c1` [H H CHONH CH3 O], with 0.01 µM; and `Cn1cc(C2=C(c3cn(C)c4cc([N+](=O)[O-])ccc34)C(=O)NC2=O)c2ccc(C#N)cc21` [H H CN NO2, 1-methyl-3-[4-(1-methyl-6-nitro-1H-indol-3-yl)-2,5-dioxo-2,5-dihydro-1H-pyrrol-3-yl]1H-indole-6-carbonitrile], with 0.05 µM; and `COc1ccc2c(C3=C(c4cn(C)c5cc(C#N)ccc45)C(=O)NC3=O)cn(C)c2c1` [H H CN OCH3, 3-[4-(6-methoxy-1-methyl-1H-indol-3-yl)-2,5-dioxo-2,5-dihydro-1H-pyrrole-3-yl]-1-methyl-indol-6-carbonitrile], with 0.005 µM.
`COC(=O)c1ccc2c(C3=C(c4cn(C)c5cc([N+](=O)[O-])ccc45)C(=O)NC3=O)cn(C)c2c1` [H H CO2 CH3 NO2, 1-methyl-3[4-(1-methyl-6-nitro-1H-indol-3-yl)-2,5-dioxo-2,5-dihydro-1H-pyrrole-3-yl]-1H-indole-6-carboxylic acid methyl ester]: 0.007 µM corresponded to half-maximal inhibition (IC50).
Then `COc1ccc2c(C3=C(c4cn(C)c5cc(Cl)ccc45)C(=O)NC3=O)cn(C)c2c1` [H H Cl OCH3, 3-(6-chloro-1-methyl-1H-indol-3-yl)-4-(6-methoxy-1-methyl-1H-indol-3-yl)-pyrrole-2,5-dione], with 0.007 µM; and `CCOCCOCCOc1ccc2c(C3=C(c4cn(C)c5cc([N+](=O)[O-])ccc45)C(=O)NC3=O)cn(C)c2c1` [H H Et(OCH2 CH2)2 O NO2, 3-{6-[2-(2-Ethoxy-ethoxy)-ethoxy]-1-methyl-1H-indol-3-yl}-4-(1-methyl-6-nitro-1H-indol-3-yl)-pyrrole-2,5-dione], with 0.04 µM.
In turn, `COc1ccc2c(C3=C(c4cn(C)c5cc(F)ccc45)C(=O)NC3=O)cn(C)c2c1` [H H F OCH3, 3-(6-fluoro-1-methyl-1H-indol-3-yl)-4-(6-methoxy-1-methyl-1H-indol-3-yl)-pyrrole-2,5-dione] registered an IC50 of 0.02 µM.
